Assay results: patent US12539292B2, “BRM targeting compounds and associated methods of use” (Arvinas Operations, Inc., priority 2018, dated 2026)

Target: T1, BRM (Homo sapiens, UniProt P51531)
T1 construct: In-Cell Western Screen of BRM Degradation in SW1573 Cells; endogenous in cells; host or cells: SW1573
Experiment: In-cell Western screen of BRM degradation in SW1573 cells (Dmax and DC50)
Format: cell-based
Conditions: BRM degradation, SW1573 cells; for DC50: read-out: DC50; for Dmax: read-out: Dmax (% degraded)
How it was run: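 SW1573 cells were treated overnight (18-20 hours) with compound at 0.1% final DMSO. They were then PFA-fixed, permeabilised with Triton X-100 and immunostained with 800 nm/680 nm secondary antibodies. BRM signal was quantified by LI-COR in-cell Western imaging to derive Dmax and DC50.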

T1 sequence (P51531 whole entry): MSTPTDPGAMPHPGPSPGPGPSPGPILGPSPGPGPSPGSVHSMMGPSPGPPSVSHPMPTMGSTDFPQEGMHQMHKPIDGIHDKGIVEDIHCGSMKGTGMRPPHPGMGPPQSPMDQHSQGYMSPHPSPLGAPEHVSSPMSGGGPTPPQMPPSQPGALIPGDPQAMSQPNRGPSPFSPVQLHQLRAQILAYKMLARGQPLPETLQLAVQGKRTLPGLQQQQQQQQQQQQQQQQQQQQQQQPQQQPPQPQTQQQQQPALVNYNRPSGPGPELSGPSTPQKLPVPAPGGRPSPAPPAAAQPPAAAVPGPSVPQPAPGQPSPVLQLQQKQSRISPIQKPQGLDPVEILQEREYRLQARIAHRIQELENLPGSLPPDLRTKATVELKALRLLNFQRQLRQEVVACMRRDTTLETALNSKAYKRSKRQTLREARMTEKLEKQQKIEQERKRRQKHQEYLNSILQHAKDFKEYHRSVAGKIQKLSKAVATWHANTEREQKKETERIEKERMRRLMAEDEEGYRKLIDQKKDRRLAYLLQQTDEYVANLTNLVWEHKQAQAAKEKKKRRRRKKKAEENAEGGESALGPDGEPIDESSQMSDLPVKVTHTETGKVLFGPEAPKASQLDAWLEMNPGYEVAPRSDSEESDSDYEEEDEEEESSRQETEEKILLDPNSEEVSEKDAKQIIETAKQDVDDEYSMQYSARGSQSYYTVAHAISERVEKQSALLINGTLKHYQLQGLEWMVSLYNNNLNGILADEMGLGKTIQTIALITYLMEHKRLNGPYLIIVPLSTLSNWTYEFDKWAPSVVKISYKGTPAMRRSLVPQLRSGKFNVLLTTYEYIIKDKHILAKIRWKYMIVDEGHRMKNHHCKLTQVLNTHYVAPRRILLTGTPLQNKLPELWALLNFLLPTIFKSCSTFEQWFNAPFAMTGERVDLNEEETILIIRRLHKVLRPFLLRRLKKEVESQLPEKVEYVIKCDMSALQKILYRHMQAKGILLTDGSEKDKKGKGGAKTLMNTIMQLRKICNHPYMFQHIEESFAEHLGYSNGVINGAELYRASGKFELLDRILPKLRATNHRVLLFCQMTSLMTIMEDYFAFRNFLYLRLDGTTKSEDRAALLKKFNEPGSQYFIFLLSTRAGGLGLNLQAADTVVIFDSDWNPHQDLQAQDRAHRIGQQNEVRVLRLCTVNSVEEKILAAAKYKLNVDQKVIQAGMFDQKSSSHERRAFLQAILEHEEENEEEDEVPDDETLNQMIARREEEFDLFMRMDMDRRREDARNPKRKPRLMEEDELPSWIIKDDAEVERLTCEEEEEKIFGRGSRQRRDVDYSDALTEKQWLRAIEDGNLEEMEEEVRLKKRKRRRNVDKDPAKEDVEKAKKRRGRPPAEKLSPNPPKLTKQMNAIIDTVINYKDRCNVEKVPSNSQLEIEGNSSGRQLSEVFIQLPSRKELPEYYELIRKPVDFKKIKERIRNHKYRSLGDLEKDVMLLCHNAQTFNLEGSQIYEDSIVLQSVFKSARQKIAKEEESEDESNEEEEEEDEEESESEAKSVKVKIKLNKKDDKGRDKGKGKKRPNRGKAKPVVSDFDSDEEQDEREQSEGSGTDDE

SMILES	DC50	Dmax
COC[C@@H](NC(=O)[C@@H]1C[C@@H](O)CN1C(=O)[C@@H](c1cc(N2CCC(CN3CCC(O[C@H]4C[C@H](Oc5cc(N6C7CCC6CN(c6cc(-c8ccccc8O)nnc6N)C7)ccn5)C4)CC3)CC2)no1)C(C)C)c1ccc(-c2scnc2C)cc1 [compound 667, (2S,4R)-1-((2R)-2-(3-(4-((4-((1r,3r)-3-((4-(3-(3-amino-6-(2-hydroxyphenyl)pyridazin-4-yl)-3,8-diazabicyclo[3.2.1]octan-8-yl)pyridin-2-yl)oxy)cyclobutoxy)piperidin-1-yl)methyl)piperidin-1-yl)isoxazol-5-yl)-3-methylbutanoyl)-4-hydroxy-N-((S)-2-methoxy-1-(4-(4-methylthiazol-5-yl)phenyl)ethyl)pyrrolidine-2-carboxamide]	10 to 30 nM	> 75%
COC[C@H](NC(=O)[C@@H]1C[C@@H](O)CN1C(=O)[C@@H](c1cc(N2CCC(CN3CCC(O[C@H]4C[C@H](Oc5cc(N6C7CCC6CN(c6cc(-c8ccccc8O)nnc6N)C7)ccn5)C4)CC3)CC2)no1)C(C)C)c1ccc(-c2scnc2C)cc1 [compound 668, (2S,4R)-1-((2R)-2-(3-(4-((4-((1r,3r)-3-((4-(3-(3-amino-6-(2-hydroxyphenyl)pyridazin-4-yl)-3,8-diazabicyclo[3.2.1]octan-8-yl)pyridin-2-yl)oxy)cyclobutoxy)piperidin-1-yl)methyl)piperidin-1-yl)isoxazol-5-yl)-3-methylbutanoyl)-4-hydroxy-N-((R)-2-methoxy-1-(4-(4-methylthiazol-5-yl)phenyl)ethyl)pyrrolidine-2-carboxamide]	< 2.5 nM	> 75%
COCC[C@@H](NC(=O)[C@@H]1C[C@@H](O)CN1C(=O)[C@@H](c1cc(N2CCC(CN3CCC(O[C@H]4C[C@H](Oc5cc(N6C7CCC6CN(c6cc(-c8ccccc8O)nnc6N)C7)ccn5)C4)CC3)CC2)no1)C(C)C)c1ccc(-c2scnc2C)cc1 [compound 669, (2S,4R)-1-((2R)-2-(3-(4-((4-((1r,3r)-3-((4-(3-(3-amino-6-(2-hydroxyphenyl)pyridazin-4-yl)-3,8-diazabicyclo[3.2.1]octan-8-yl)pyridin-2-yl)oxy)cyclobutoxy)piperidin-1-yl)methyl)piperidin-1-yl)isoxazol-5-yl)-3-methylbutanoyl)-4-hydroxy-N-((R)-3-methoxy-1-(4-(4-methylthiazol-5-yl)phenyl)propyl)pyrrolidine-2-carboxamide]	10 to 30 nM	50 to 75%
COCC[C@H](NC(=O)[C@@H]1C[C@@H](O)CN1C(=O)[C@@H](c1cc(N2CCC(CN3CCC(O[C@H]4C[C@H](Oc5cc(N6C7CCC6CN(c6cc(-c8ccccc8O)nnc6N)C7)ccn5)C4)CC3)CC2)no1)C(C)C)c1ccc(-c2scnc2C)cc1 [compound 670, (2S,4R)-1-((2R)-2-(3-(4-((4-((1r,3r)-3-((4-(3-(3-amino-6-(2-hydroxyphenyl)pyridazin-4-yl)-3,8-diazabicyclo[3.2.1]octan-8-yl)pyridin-2-yl)oxy)cyclobutoxy)piperidin-1-yl)methyl)piperidin-1-yl)isoxazol-5-yl)-3-methylbutanoyl)-4-hydroxy-N-((S)-3-methoxy-1-(4-(4-methylthiazol-5-yl)phenyl)propyl)pyrrolidine-2-carboxamide]	< 2.5 nM	> 75%
Cc1ncsc1-c1ccc([C@H](CC#N)NC(=O)[C@@H]2C[C@@H](O)CN2C(=O)[C@@H](c2cc(N3CCC(CN4CCC(O[C@H]5C[C@H](Oc6cc(N7C8CCC7CN(c7cc(-c9ccccc9O)nnc7N)C8)ccn6)C5)CC4)CC3)no2)C(C)C)cc1 [compound 671, (2S,4R)-1-((2R)-2-(3-(4-((4-((1r,3r)-3-((4-(3-(3-amino-6-(2-hydroxyphenyl)pyridazin-4-yl)-3,8-diazabicyclo[3.2.1]octan-8-yl)pyridin-2-yl)oxy)cyclobutoxy)piperidin-1-yl)methyl)piperidin-1-yl)isoxazol-5-yl)-3-methylbutanoyl)-N-((S)-2-cyano-1-(4-(4-methylthiazol-5-yl)phenyl)ethyl)-4-hydroxypyrrolidine-2-carboxamide]	< 2.5 nM	> 75%
Cc1ncsc1-c1ccc([C@H](CCC#N)NC(=O)[C@@H]2C[C@@H](O)CN2C(=O)[C@@H](c2cc(N3CCC(CN4CCC(O[C@H]5C[C@H](Oc6cc(N7C8CCC7CN(c7cc(-c9ccccc9O)nnc7N)C8)ccn6)C5)CC4)CC3)no2)C(C)C)cc1 [compound 672, (2S,4R)-1-((2R)-2-(3-(4-((4-((1r,3r)-3-((4-(3-(3-amino-6-(2-hydroxyphenyl)pyridazin-4-yl)-3,8-diazabicyclo[3.2.1]octan-8-yl)pyridin-2-yl)oxy)cyclobutoxy)piperidin-1-yl)methyl)piperidin-1-yl)isoxazol-5-yl)-3-methylbutanoyl)-N-((S)-3-cyano-1-(4-(4-methylthiazol-5-yl)phenyl)propyl)-4-hydroxypyrrolidine-2-carboxamide]	< 2.5 nM	> 75%
Cc1ncsc1-c1ccc([C@@H](CCC#N)NC(=O)[C@@H]2C[C@@H](O)CN2C(=O)[C@@H](c2cc(N3CCC(CN4CCC(O[C@H]5C[C@H](Oc6cc(N7C8CCC7CN(c7cc(-c9ccccc9O)nnc7N)C8)ccn6)C5)CC4)CC3)no2)C(C)C)cc1 [compound 673, (2S,4R)-1-((2R)-2-(3-(4-((4-((1r,3r)-3-((4-(3-(3-amino-6-(2-hydroxyphenyl)pyridazin-4-yl)-3,8-diazabicyclo[3.2.1]octan-8-yl)pyridin-2-yl)oxy)cyclobutoxy)piperidin-1-yl)methyl)piperidin-1-yl)isoxazol-5-yl)-3-methylbutanoyl)-N-((R)-3-cyano-1-(4-(4-methylthiazol-5-yl)phenyl)propyl)-4-hydroxypyrrolidine-2-carboxamide]	10 to 30 nM	50 to 75%
Cc1ncoc1-c1ccc([C@H](C)NC(=O)[C@@H]2C[C@@H](O)CN2C(=O)[C@@H](c2cc(N3CCC(CN4CCC(O[C@H]5C[C@H](Oc6cc(N7C8CCC7CN(c7cc(-c9ccccc9O)nnc7N)C8)ccn6)C5)CC4)CC3)no2)C(C)C)cc1 [compound 674, (2S,4R)-1-((2R)-2-(3-(4-((4-((1r,3r)-3-((4-(3-(3-amino-6-(2-hydroxyphenyl)pyridazin-4-yl)-3,8-diazabicyclo[3.2.1]octan-8-yl)pyridin-2-yl)oxy)cyclobutoxy)piperidin-1-yl)methyl)piperidin-1-yl)isoxazol-5-yl)-3-methylbutanoyl)-4-hydroxy-N-((S)-1-(4-(4-methyloxazol-5-yl)phenyl)ethyl)pyrrolidine-2-carboxamide]	< 2.5 nM	> 75%
Cc1ncsc1-c1ccc([C@H](C)NC(=O)[C@@H]2C[C@@H](O)CN2C(=O)[C@@H](c2cc(N3CCC(CN4CCC(O[C@H]5C[C@H](Oc6cc(N7C8CCC7CN(c7cc(-c9ccccc9O)nnc7N)C8)ccn6)C5)CC4)CC3)no2)C(C)C)cn1 [compound 675, (2S,4R)-1-((2R)-2-(3-(4-((4-((1r,3r)-3-((4-(3-(3-amino-6-(2-hydroxyphenyl)pyridazin-4-yl)-3,8-diazabicyclo[3.2.1]octan-8-yl)pyridin-2-yl)oxy)cyclobutoxy)piperidin-1-yl)methyl)piperidin-1-yl)isoxazol-5-yl)-3-methylbutanoyl)-4-hydroxy-N-((S)-1-(6-(4-methylthiazol-5-yl)pyridin-3-yl)ethyl)pyrrolidine-2-carboxamide]	< 2.5 nM	> 75%
